{"source": "patent US11214835B1", "about": "“Methods and compositions for diagnosis and management of neurodegerative diseases” (UNIVERSITY OF SOUTH FLORIDA, priority 2017, dated 2022)", "key": {"HT22 cells [1]": {"test_system": "HT22 cells", "test": "Toxicity of side-chain derivatives to HT22 cells (preliminary data)"}, "GAS5 [2]": {"test_system": "GAS5", "test": "Binding of side-chain derivatives to GAS5 (preliminary data)"}, "GAS5 [3]": {"test_system": "GAS5", "test": "GAS5 levels in NDM adipocytes after insulin, real-time qPCR", "assay_type": "cell-based, human", "conditions": "about 10 nM, 24 hours", "from_the_text": "Depletion of GAS5 decreases glucose uptake: Adipose tissue is the primary target for insulin-mediated glucose uptake. […] To maintain reproducibility over a larger number of experiments, adipose stem cells derived from normal or diabetic patients were purchased from Zenbio (BMI 20-24, Nondiabetic HbA1C 5.9 (hereafter referred as NDM); T2DM HbA1c 8.5 (hereafter referred as DM)). The adipose stem cells (ASC) were differentiated in vitro to mature adipocytes and used in experiments. GAS5 siRNA (10 nM, Ambion 332778, validated; scrambled siRNA as control) was transfected in NDM pre-adipocytes for 48 h, differentiated to mature NDM adipocytes for 8 days and knockdown confirmed by GAS5 SYBR Green qPCR. We determined the effect of GAS5 depletion on glucose uptake by NDM adipocytes. Cells were serum starved, 10 nM insulin was added to cells for 30 minutes and [^3H]-deoxy-2-D-Glucose uptake was measured. Results indicated a decrease in glucose uptake in GAS5 depleted NDM adipocytes ***p<0.001, highly significant using two-tailed students t-test.\nAbout 10 nM insulin was added to NDM adipocytes for 24 hours. […] Separately, GAS5 was depleted in NDM adipocytes using GAS5 siRNA as described above to evaluate the insulin receptor mediated PI3K→AKT pathway. Whole cell lysates were evaluated by western blot analysis using antibodies against p-AKT and total AKT."}, "[4]": {"test_system": "aged normal and aged diabetic (db/db) mice", "test": "Radial arm water maze (RAWM) after intranasal insulin in aged normal and db/db mice", "assay_type": "in vivo, mouse", "conditions": "1 unit/ml daily for 3 weeks, both normal aged and aged diabetic mice", "from_the_text": "(§1) Diabetes increases the risk for impaired cognitive function and dementia by 47%. Patients with T2DM have cognitive deficits affecting verbal and nonverbal memory, attention, information processing speed, and executive function. To assess the cognitive function with respect to insulin resistance in vivo, aged diabetic mice BKS.Cg-+ Lepr^db/+ Lepr^db/OlaHsd (Older db/db mice from Harlan were used; 11 months—as this mouse model has lower life span) along with their normal age-matched controls. We measured the levels of GAS5 and insulin receptor (IR) in young (4 months) and db/db mice along with their age-matched control mice. The hippocampi of the mice were collected and SYBR Green qPCR was performed. […] Intranasal insulin delivery is a noninvasive method that bypasses the blood-brain barrier and delivers insulin to the brain and the spinal cord. Biologically effective concentrations of insulin can be achieved without systemic side effects.\n(§2) After intranasal administration, insulin and peptide analogues begin to accumulate in the CSF within 30 minutes. Intranasal insulin directly improves learning and memory and has no effect on circulating blood glucose levels. Thus, the effects may reflect activation of neuronal insulin signaling pathways. […] Errors (incorrect arm choices) and escape latency were recorded for each daily trial (FIGS. 3B-3C)."}, "insulin receptor (IR)": {"test_system": "insulin receptor (IR)", "test": "Insulin receptor levels after intranasal insulin treatment", "assay_type": "in vivo, mouse", "from_the_text": "as §1, §2"}, "neurons": {"test_system": "neurons", "test": "Immunohistochemistry after insulin treatment", "assay_type": "in vivo, mouse", "experimental": "FIGS. 4A-4B show panels fluorescent microscopic images of the results from Immuno histochemical analysis post insulin treatment in neron cells. The bar in the images of the panel of FIG. 4B is 20 μm.\nAfter intranasal administration, insulin and peptide analogues begin to accumulate in the CSF within 30 minutes. Intranasal insulin directly improves learning and memory and has no effect on circulating blood glucose levels. Thus, the effects may reflect activation of neuronal insulin signaling pathways. The age-matched control and db/db mice cohorts were treated with intranasal insulin (1 unit/ml, daily for 3 weeks) and the radial arm water maze (RAWM) was used for cognitive assessment. Errors (incorrect arm choices) and escape latency were recorded for each daily trial (FIGS. 3B-3C)."}, "[5]": {"conditions": "after intranasal administration; cited from earlier work"}, "HT22 cells [6]": {"test_system": "HT22 cells", "conditions": "mouse"}, "GAS5 lncRNA": {"test_system": "GAS5 lncRNA", "test": "γ-AApeptide OBOC combinatorial library screen with fluorescein tagged GAS5 oligonucleotide, hits validated in vitro", "assay_type": "binding", "conditions": "fluorescein tagged GAS5 oligonucleotide probe, tRNA as control", "from_the_text": "The interaction between UPF1 and GAS5 was disrupted using a γ-AApeptide based one-bead-one-compound (OBOC) combinatorial library (Wu H, Li Y, Bai G, Niu Y, Qiao Q, Tipton J D, Cao C, Cai J. gamma-AApeptide-based small-molecule ligands that inhibit Abeta aggregation. Chemical communications. 2014; 50(40):5206-8. doi: 10.1039/c3cc46685j. PubMed PMID: 24158240). The γ-AApeptide is a peptidomimetic with side chains for chemical diversity and are resistant to proteolytic cleavage. To screen the compound library, a probe that contained a fluorescein tagged oligonucleotide was synthesized. The probe spanned 30 nucleotides on either side of the UAA sequences on GAS5 (FIG. 13) The fluorescein was attached to the 5′end (beginning of oligonucleotide probe sequence). The nucleotide sequence within the GAS5 IncRNA that the oligonucleotide probe binds to can be about 100% identical to […] (SEQ ID NO: 4), which is nucleotides 541 to 651 of SEQ ID NO: 1. The underlined regions indicate the UAA that is the target regions. As such, the oligonucleotide probe was designed to flank both sides of these target regions.\nThe length of oligonucleotide was required to maintain stem loop structure to specifically bind to GAS5. Further, we modeled the oligonucleotide (RNAfold software) to evaluate its folding and verified absence of any unwanted secondary structures. The backbone was modified by 2′-MOE (2′-O-methoxyethylribose), which protects it from degradation and a fluoroscein tag was attached to the 5′end to aid in screening. The oligonucleotide probe was used to screen 160,000 molecules in the combinatorial library using tRNA as control (as tRNA has similar stem loop secondary structures). […] The compound having a structure according to Formula 3 was determined to have a chemical formula of C68H92N10O9S, a mass of about 1224.6769, and a molecular weight of 1225.6050. The compound having a structure according to Formula 14 was determined to have a chemical formula of C63H85N9O13S, a mass of about 1207.5988, and a molecular weight of 1208.4830. […]"}}, "note": "Read-outs that look alike come from different tables or passages of the source."}
{"molecule": "CC(C)C[C@H]1CN(C(=O)CCc2ccccc2)CC(=O)N[C@@H](Cc2ccccc2)CN(C(=O)CC2CC2)CC(=O)N[C@@H](Cc2ccccc2)CN(CC(N)=O)C(=O)CCSCc2ccc(cc2)C(=O)N[C@@H](Cc2ccccc2)CN(C(=O)CCCN)CC(=O)N1", "note": "[YS-D-69]", "values": [{"measurement": "toxicity to HT22 cells", "setting": "HT22 cells [1]", "result": "not toxic to HT22 cells"}, {"measurement": "binding to GAS5", "setting": "GAS5 [2]", "result": "bound efficiently to GAS5"}]}
{"molecule": "CC(C)C[C@H]1CN(CC(N)=O)C(=O)CCSCc2ccc(cc2)C(=O)N[C@@H](C)CN(C(=O)CCc2ccccc2)CC(=O)N[C@@H](CC(C)C)CN(C(=O)CC2CC2)CC(=O)N[C@@H](CCCCN)CN(C(=O)CCC2CCCCC2)CC(=O)N1", "note": "[YS-D-66]", "values": [{"measurement": "toxicity to HT22 cells", "setting": "HT22 cells [1]", "result": "not toxic to HT22 cells"}, {"measurement": "binding to GAS5", "setting": "GAS5 [2]", "result": "bound efficiently to GAS5"}]}
{"molecule": "insulin", "values": [{"measurement": "GAS5 levels in NDM adipocytes", "setting": "GAS5 [3]", "result": "increase in GAS5 levels"}, {"measurement": "cognitive performance in RAWM (errors, escape latency)", "setting": "[4]", "result": "improved the cognitive performance"}, {"measurement": "levels of IR", "setting": "insulin receptor (IR)", "result": "did not increase"}, {"measurement": "neurogenesis", "setting": "neurons", "result": "increased"}, {"measurement": "neuronal proliferation", "setting": "neurons", "result": "increased"}, {"measurement": "time to begin to accumulate in the CSF", "setting": "[5]", "result": "≤ 30", "unit": "min"}]}
{"molecule": "NCCCC[C@H]1CN(C(=O)CCCN)CC(=O)N[C@@H](CCC(=O)O)CN(CC(N)=O)C(=O)CCSCc2ccc(cc2)C(=O)N[C@@H](CCCCN)CN(C(=O)CCC(=O)O)CC(=O)N[C@@H](Cc2ccccc2)CN(C(=O)CCc2ccccc2)CC(=O)N1", "note": "[YS-D-70]", "values": [{"measurement": "binding to GAS5", "setting": "GAS5 [2]", "result": "bound efficiently to GAS5"}, {"measurement": "toxicity to HT22 cells", "setting": "HT22 cells [6]", "result": "not toxic to HT22 cells"}]}
{"molecule": "CC(C)C[C@H]1CN(C(=O)CCc2ccccc2)CC(=O)N[C@@H](Cc2ccccc2)CN(C(=O)CC2CC2)CC(=O)N[C@@H](Cc2ccccc2)CN(CC(N)=O)C(=O)CCSCc2ccc(cc2)C(=O)N[C@@H](CCCCN)CN(C(=O)CCc2ccccc2)CC(=O)N1", "note": "[YS-D-68]", "values": [{"measurement": "toxicity to HT22 cells", "setting": "HT22 cells [1]", "result": "not toxic to HT22 cells"}, {"measurement": "binding to GAS5", "setting": "GAS5 [2]", "result": "bound efficiently to GAS5"}]}
{"molecule": "C[C@H]1CN(C(=O)CC2CC2)CC(=O)N[C@@H](CCC(=O)O)CN(C(=O)CCC2CCCCC2)CC(=O)N[C@@H](Cc2ccccc2)CN(CC(N)=O)C(=O)CCSCc2ccc(cc2)C(=O)N[C@@H](Cc2ccccc2)CN(C(=O)CCC(=O)O)CC(=O)N1", "note": "[Formula 14]", "values": [{"measurement": "ability to bind GAS5 (identified and validated from library screen)", "setting": "GAS5 lncRNA", "result": "able to bind GAS5"}]}
